≈ marks a conversion by molar mass, not a printed value. Where two headings read alike, the source gives them in different places.
Legend:
[1] = Solubility; format: physicochemical
[2] = tested on: Bacillus subtilis KY 4273; assay: Antibacterial spectrum by agar dilution method (pH 7.0); format: cell-based
Description: (§1) The antibacterial spectra of 7-deazaadenosine and 7-deazainosine against various microorganisms by agar dilution method (pH 7.0) are shown in the following Table 3.

[3] = tested on: Comamonas terrigena KY 4174; assay: as above; format: cell-based
Description: as §1

[4] = tested on: Mycobacterium smegmatis KY 3848; assay: as above; format: cell-based; conditions: Mycolicibacterium smegmatis
Description: as §1

[5] = tested on: Escherichia coli KY 4271; assay: as above; format: cell-based
Description: as §1

[6] = tested on: Pseudomonas alcaligenes KY 4656; assay: as above; format: cell-based; conditions: Aquipseudomonas alcaligenes
Description: as §1

[7] = tested on: Mycobacterium phlei KY 3486; assay: as above; format: cell-based; conditions: Mycolicibacterium phlei
Description: as §1

MIC ([2]; KY4273, Bacillus subtilis KY 4273, agar dilution, pH 7.0, read-out: MIC) | MIC ([3]; KY4174, Comamonas terrigena KY 4174, agar dilution, pH 7.0, read-out: MIC) | MIC ([4]; KY3848, Mycobacterium smegmatis KY 3848, agar dilution, pH 7.0, read-out: MIC) | MIC ([5]; KY4271, Escherichia coli KY 4271, agar dilution, pH 7.0, read-out: MIC) | MIC ([6]; KY4656, Pseudomonas alcaligenes KY 4656, agar dilution, pH 7.0, read-out: MIC) | MIC ([7]; KY3486, Mycobacterium phlei KY 3486, agar dilution, pH 7.0, read-out: MIC) | SMILES | Solubility ([1]; in hexane, benzene and ether) | Solubility ([1]; in methanol) | Solubility ([1]; in water) | MIC ([2]; Bacillus subtilis, KY4273, pH 7) | MIC ([3]; Comamonas terrigena, KY4174, pH 7) | MIC ([4]; KY3848, pH 7) | MIC ([5]; Escherichia coli, KY4271, pH 7) | MIC ([6]; KY4656, pH 7) | MIC ([7]; KY3486, pH 7)
 |  |  |  |  |  | Nc1ncnc2c1ccn2[C@@H]1O[C@H](CO)[C@@H](O)[C@H]1O [7-Deazaadenosine, 7-deazaadenosine] | insoluble | poorly soluble | Soluble | 100 µg/mL (≈ 376 µM) | 10 µg/mL (≈ 37.6 µM) | 20 µg/mL (≈ 75.1 µM) | > 100 µg/mL | 10 µg/mL (≈ 37.6 µM) | < 0.045 µg/mL
> 100 µg/mL | 40 µg/mL (≈ 150 µM) | > 100 µg/mL | > 100 µg/mL | 40 µg/mL (≈ 150 µM) | < 0.045 µg/mL | O=c1[nH]cnc2c1ccn2[C@@H]1O[C@H](CO)[C@@H](O)[C@H]1O [7-Deazainosine, 7-deazainosine] | insoluble | poorly soluble | Soluble |  |  |  |  |  | 
